Results from patent publication US7018639B1, “Vaccine antigens of Moraxella” (Commonwealth Scientific and Industrial Research Organisation, priority 1999, dated 2006).

System: M. bovis protease
Assay type: biochemical, Moraxella bovis
Settings: 37° C.

SMILES: O=S(=O)(F)Cc1ccccc1 [PMSF, phenylmethylsulfonyl fluoride]
- protease activity after inhibitor: zero
